Measured values reported in patent US20210361767A1, “RESCUING CANCER PATIENTS FROM RESISTANCE TO TREATMENT WITH INHIBITORS OF PD-1/PD-L1 INTERACTIONS” (Mayo Foundation for Medical Education and Research, priority 2018, published 2021).

Columns and labels:
[1] = tested on: Dul45 prostate cancer cells; assay: sPD-L1 ELISA of supernatants of Dul45 prostate cancer cells; assay type: cell-based; details: FIG. 4C
Protocol: (§1) Several tumor cell lines were treated with PBS (placebo) or with various protease inhibitors, including matrix metalloprotease inhibitors TAPI-2 and TAPI-0, aspartic protease inhibitor Pepstatin, cysteine protease inhibitor E-64, serine protease inhibitor Aprotinin, combinations of these inhibitors, and an array of other matrix metalloprotease inhibitors. Cell supernatants were queried for sPD-L1 by ELISA as published elsewhere (Frigola et la., supra). In brief, paired mouse IgG2 monoclonal antibodies against extracellular rhB7-H1 were utilized in a capture-detection plate assay using biotinylation and HRP-streptavidin detection. […] Concentrations were determined by optical density measurements along a known standard curve of rhB7-H1. Karpas-299 cells were incubated at 10 MM cells per ml in cell culture media (RPMI plus FBS plus Penicillin/Streptomycin plus buffering reagents) over 24 hours in the presence of 1 μl/100 μl DMSO or PBS (placebo), TAPI-2 at 278 μM, Pepstatin at 206.5 μM, E-64 at 185 μM, or Aprotinin at 220 μM, or a combination of the above materials at various concentrations. […] All statistical analyses were performed using R! software. Two-sided, unpaired Student t tests assessed statistical differences in experimental groups except where otherwise indicated. P values indicate comparison to vehicle control groups. P<0.05 was considered statistically significant.
Further studies were conducted using different types of cells.

[2] = tested on: CD8+ T cells; assay: CD8+ T cell survival with Karpas-299 supernatants, TMRE/Annexin-V flow cytometry; assay type: cell-based, human; details: for survival of CD8+ T cells: with Karpas-299 supernatant
Protocol: CD8+ T cells isolated from healthy subjects were incubated in the presence of 50% Karpas-299 supernatants of varying types and 50% fresh cell culture media. Supernatant types included sPD-L1-rich supernatants from Karpas-299 cells, supernatants from Karpas-299 cells treated with TAPI-0 to prevent sPL-L1 production, supernatants from Karpas-299 cells “spiked” with TAPI-0 after sPD-L1 production, and fresh culture media controls (FIG. 5C). Karpas-299 cell supernatants were generated by incubation at 10 MM cells/ml for 48 hours. TMRE/Annexin-V binding was measured by flow cytometry to assess the level of CD8+ T cell survival. Antibodies and reagents used for flow cytometry were Annexin-V-FITC, anti-mouse CD16/32 (BioLegend; San Diego, Calif.); anti-PD-L1, mouse isotype control (eBioScience/Thermo Fisher Scientific; Waltham, Mass.), TMRE-PE (Abcam; Cambridge, Mass.), BD Wash/Perm (Becton Dickenson; Waltham, Mass.). Flow cytometry was performed and analyzed using FlowJo (Treestar; Ashland, Oreg.).
CD8+ T cells were incubated with supernatants from Karpas-299 cells as above, plus varying doses of several anti-PD-1 antibodies.
(§2) Karpas-299 lymphoma cells producing sB7-H1 were cultured with an array of protease inhibitors. Supernatants from these cultures were isolated and analyzed for sB7H1 concentration by ELISA. Subsequently, activated human CD8+ T cells were cultured with recombinant sB7H1 protein and cell survival was measured at 24 hours. CD8+ T cells also were cultured with sB7H1-rich tumor cell line supernatants versus sB7H1-depleted supernatants over 48 hours in the presence of placebo, low dose (10 nM), or high dose (1 μM) anti-PD-1 antibody pembrolizumab, and cell survival was measured.

[3] = tested on: CD8+ T cells; assay: CD8+ T cell survival with sPD-L1-rich Karpas-299 supernatant, with or without checkpoint inhibitors (trypan blue); assay type: cell-based, human; details: with sPD-L1-rich Karpas-299 supernatant, therapeutic doses of checkpoint inhibitor, n=3, FIG. 5B
Protocol: FIG. 5A is a graph plotting survival of CD8+ human T cells cocultured in the presence of PBS control or 5 μg/ml or 10 μg/ml recombinant sPD-L1. […] FIG. 5B is a graph plotting survival of CD8+ human T cells cultured in the presence of PBS control or sPD-L1-rich Karpas-299 cell line supernatant, in the presence or absence of PD1 or PD-L1 checkpoint inhibitors. Cell survival was measured by trypan blue staining. […] FIGS. 5C and 5D are a series of flow cytometry plots indicating survival of CD8+ T cells treated with various cell extracts and an anti-PD-1 antibody (nivolumab or pembrolizumab) or an anti-PD-L1 antibody (atezolizumab). FIG. 5C, CD8+ T cells isolated from healthy subjects were incubated with sPD-L1-rich supernatants from Karpas-299 cells, supernatants from Karpas-299 cells treated with inhibitor TAPI-0, supernatants from Karpas-299 cells “spiked” with TAPI-0 after isolation, and controls (top), and TMRE uptake/Annexin-V binding was measured by flow cytometry to assess the level of CD8+ T cell survival. CD8+ T cells also were incubated with supernatants from Karpas-299 cells, plus the indicated doses of anti-PD-1 and anti-PD-L1 antibodies (bottom). FIG. 5D, CD8+ T cells were incubated with PD-L1-rich supernatants from A787-0 RCC cells and the indicated concentrations of pembrolizumab. […]

[4] = tested on: Karpas-299 cells; assay: sPD-L1 ELISA of supernatants of Karpas-299 cells treated with protease inhibitors; assay type: cell-based; details: for sPD-L1 production with increasing concentrations: Karpas-299, 1 MM-10 MM cells/ml, aderbasib 320 pM to 32 mM, FIG. 4F; for Karpas-299 production of sB7H1: Example 3, supernatants by ELISA, p<0.0001
Protocol: as §1
Subsequent studies were conducted in which Karpas-299 cells were incubated with different matrix metalloprotease inhibitors with varying specificities. For example, Karpas-299 cells were incubated at 10 MM cells per ml in cell culture media over 24 hours in the presence of 1 μl/100 μl DMSO (control), 50 μM TAPI-2, 50 μM TAPI-0, 50 μM GI254023X, 5 μM Ro 32-3555, 5 μM ARP 101, 50 μM UK 370106, 500 pM MMP-9 inhibitor I, 5 μM Doxycycline, or some combination thereof.
Aderbasib is a selective inhibitor of matrix metalloproteases ADAM10 and ADAM17. Karpas-299 cells were incubated at 1 MM-10 MM cells/ml and treated for 24 hours with concentrations of aderbasib ranging from 320 pM to […].
as §2

[5] = tested on: A786-0 (renal cell carcinoma) cells; assay: sPD-L1 ELISA of supernatants of A786-0 cells treated with protease inhibitors; assay type: cell-based; details: n=5, FIG. 4E
Protocol: Tumor cells were treated with PBS (placebo) or with various protease inhibitors, including MMP inhibitors TAPI-2 and TAPI-0, aspartic protease inhibitor Pepstatin, cysteine protease inhibitor E-64, serine protease inhibitor Aprotinin, combinations of these inhibitors, and an array of other MMP inhibitors. Cell supernatants were queried for sPD-L1 by ELISA. FIG. 4A, Karpas-299 (lymphoma) cells were treated with the indicated protease inhibitors. FIG. 4B, A786-0 (renal cell carcinoma) cells were treated with the indicated protease inhibitors. FIG. 4C, Dul45 cells were treated with the indicated protease inhibitors. FIG. 4D, Mel-B7H1 (transgenic melanoma) cells were treated with the indicated protease or metalloprotease inhibitors. FIG. 4E is a graph plotting sPD-L1 production induced by interferon treatment or high cell titer in A786-0 cells. Cells grown at 1 MM/ml in control DMSO produced little sPD-L1. […] FIG. 4F is a graph plotting the amount of sPD-L1 in supernatants of Karpas-299 cells treated with control or with varying concentrations of the ADAM10/17 inhibitor aderbasib.
Several tumor cell lines were treated with PBS (placebo) or with various protease inhibitors, including matrix metalloprotease inhibitors TAPI-2 and TAPI-0, aspartic protease inhibitor Pepstatin, cysteine protease inhibitor E-64, serine protease inhibitor Aprotinin, combinations of these inhibitors, and an array of other matrix metalloprotease inhibitors. Cell supernatants were queried for sPD-L1 by ELISA as published elsewhere (Frigola et la., supra). In brief, paired mouse IgG2 monoclonal antibodies against extracellular rhB7-H1 were utilized in a capture-detection plate assay using biotinylation and HRP-streptavidin detection. […] Concentrations were determined by optical density measurements along a known standard curve of rhB7-H1. […] Two-sided, unpaired Student t tests assessed statistical differences in experimental groups except where otherwise indicated. […]

[6] = tested on: A549 cells; assay: PD-L1 flow cytometry of A549 cells; assay type: cell-based; details: vs DMSO, FIGS. 7C, 7D
Protocol: FIGS. 7A and 7B are flow cytometry plots and graphs showing that cell PD-L1 expression is restored by treatment with an inhibitor of ADAM10 and/or ADAM17, and is decreased by treatment with exogenous recombinant ADAM10 or ADAM17. Cells were incubated in the presence of the indicated treatments, and PD-L1 flow cytometry was performed.

[7] = tested on: A549 cells; assay: sPD-L1 in supernatants of A549 cells treated with exogenous ADAM17; assay type: cell-based; details: exogenous ADAM17 vs PBS control, FIG. 4G
[8] = tested on: CD8+ T cells; assay: CD8+ T cell survival with A786-0 supernatant plus pembrolizumab; assay type: cell-based, human; details: supernatants from A786-0 RCC cells (20% A786-0 supernatant), increasing concentrations; partial rescue; FIG. 5D
Protocol: FIG. 5A is a graph plotting survival of CD8+ human T cells cocultured in the presence of PBS control or 5 μg/ml or 10 μg/ml recombinant sPD-L1. […] FIG. 5B is a graph plotting survival of CD8+ human T cells cultured in the presence of PBS control or sPD-L1-rich Karpas-299 cell line supernatant, in the presence or absence of PD1 or PD-L1 checkpoint inhibitors. Cell survival was measured by trypan blue staining. […] FIGS. 5C and 5D are a series of flow cytometry plots indicating survival of CD8+ T cells treated with various cell extracts and an anti-PD-1 antibody (nivolumab or pembrolizumab) or an anti-PD-L1 antibody (atezolizumab). FIG. 5C, CD8+ T cells isolated from healthy subjects were incubated with sPD-L1-rich supernatants from Karpas-299 cells, supernatants from Karpas-299 cells treated with inhibitor TAPI-0, supernatants from Karpas-299 cells “spiked” with TAPI-0 after isolation, and controls (top), and TMRE uptake/Annexin-V binding was measured by flow cytometry to assess the level of CD8+ T cell survival. CD8+ T cells also were incubated with supernatants from Karpas-299 cells, plus the indicated doses of anti-PD-1 and anti-PD-L1 antibodies (bottom). FIG. 5D, CD8+ T cells were incubated with PD-L1-rich supernatants from A787-0 RCC cells and the indicated concentrations of pembrolizumab.
In brief, A786-0 cells were incubated at 10 MM cells/ml for 48 hours. […]

[9] = tested on: PD-L1 mRNA; assay: PD-L1 mRNA expression by RT-PCR in Karpas-299 cells; assay type: cell-based; details: Karpas-299, 50 μM TAPI-0, 24 hours; data not shown
[10] = tested on: Mel-B7H1 (transgenic melanoma) cells; assay: sPD-L1 ELISA of supernatants of Mel-B7H1 cells; assay type: cell-based; details: FIG. 4D
Protocol: as §1, with “significant. […]” for “significant.”

[11] = antibody at 1 μM, 1 μM pembrolizumab among the most effective, FIG. 5C

CCN(CC)Cc1cc(C)c(N(Cc2ccccc2)S(=O)(=O)c2ccc(OC)cc2)c(C(=O)NO)c1 [MMPI9]
sPD-L1 secretion versus controls [1]: significantly reduced

nivolumab: anti-PD-1 antibody, trade name OPDIVO
survival of CD8+ T cells [2, 11]: increased the survival
rescue of CD8+ T cell survival [3]: did not rescue

COC(=O)N1CC2(CC2)C[C@H](C(=O)NO)[C@H]1C(=O)N1CCN(c2ccccc2)CC1 [aderbasib]
sPD-L1 secretion versus controls [1]: significantly reduced
sPD-L1 production with increasing concentrations ([4]; 24 hours): decreasing concentrations of sPD-L1
sPD-L1 production with increasing concentrations ([4]; 24 hours, listed as Aderbasib): reduces sPD-L1 production
mean sPD-L1 production ([5]; A786-0 at 10 MM/ml, control DMSO 886 pg/ml, p=0.00018): 276 pg/mL

ADAM17 (TACE): commercially-obtained, recombinant form of ADAM17 (TACE)
PD-L1 expression (flow cytometry) [6]: decreased
detectable sPD-L1 secreted [7]: higher amounts

pembrolizumab: humanized anti-PD-1 antibody, trade name KEYTRUDA
sB7-H1-containing supernatant-induced CD8+ T cell death ([2]; Example 3, 48 hours, high dose (1 μM)): decreased
survival of CD8+ T cells ([2]; antibody at 10 nM, FIG. 5C): increased the survival
survival of CD8+ T cells [2, 11]: increased the survival
rescue of CD8+ T cell survival [3]: did not rescue
survival of CD8+ T cells [8]: increased the survival

CC(C)C[C@H](CC(=O)NO)C(=O)N[C@@H](Cc1ccc2ccccc2c1)C(=O)N[C@@H](C)C(N)=O [TAPI-0]
rate of apoptosis of CD8+ T cells ([2]; 50% supernatant from TAPI-0 treated Karpas-299 cells and 50% fresh media, FIG. 5C): 2.46%
CD8+ T cell death ([2]; Karpas-299 supernatants with added TAPI-0): did not induce cell death
sPD-L1 secretion versus controls [1]: significantly reduced
PD-L1 mRNA expression [9]: without reducing PD-L1 mRNA expression
Karpas-299 production of sB7H1 [4]: inhibited
secretion of sPD-L1 ([4]; Karpas-299, 10 MM cells per ml, 24 hours, 50 μM TAPI-0, vs DMSO, FIG. 4A, p=3.97×10^−7): reduced the secretion of sPD-L1
mean sPD-L1 production ([5]; A786-0 at 1 MM/ml, interferon plus TAPI-0, interferon alone 923 pg/ml): 0 pg/mL

CNC(=O)[C@@H](NC(=O)[C@H](CCCc1ccccc1)[C@H](C)N(O)C=O)C(C)(C)C [GI254023X]
sPD-L1 expression [10]: most significantly reduced
Karpas-299 production of sB7H1 [4]: inhibited

B1: ADAM10: exogenous recombinant ADAM10 (protein)
chain: TTSAEKNTCQLYIQTDHLFFKYYGTREAVIAQISSHVKAIDTIYQTTDFSGIRNISFMVKRIRINTTADEKDPTNPFRFPNIGVEKFLELNSEQNHDDYCLAYVFTDRDFDDGVLGLAWVGAPSGSSGGICEKSKLYSDGKKKSLNTGIITVQNYGSHVPPKVSHITFAHEVGHNFGSPHDSGTECTPGESKNLGQKENGNYIMYARATSGDKLNNNKFSLCSIRNISQVLEKKRNNCFVESGQPICGNGMVEQGEECDCGYSDQCKDECCFDANQPEGRKCKLKPGKQCSPSQGPCCTAQCAFKSKSEKCRDDSDCAREGICNGFTALCPASDPKPNFTDCNRHTQVCINGQCAGSICEKYGLEECTCASSDGKDDKELCHVCCMKKMDPSTCASTGSVQWSRHFSGRTITLQPGSPCNDFRGYCDVFMRCRLVDADGPLARLKKAIFSPELYENIAE
PD-L1 expression (flow cytometry) [6]: decreased
